Experimental data published in ChEMBL document CHEMBL1201862, “PubChem BioAssay data set” (2004).
Structures can show the parent of a compound that is named as a salt.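 Method: 48-hour compound exposure of cells in 96-well plates, five concentrations, linear interpolation of endpoints. GI50 = concentration required for 50% inhibition of growth.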 Calls of active or inactive are those of the source. No stated cut-off is given here; in the data, active = GI50 up to about 1.1 µM and inactive = higher.

Key:
Assay in all cases: NCI tumour cell line growth inhibition, 48 h
BT-549 = tested on: BT-549
EKVX = tested on: EKVX
RXF 631 = tested on: RXF 631
SNB-75 = tested on: SNB-75
SK-OV-3 = tested on: SK-OV-3
M14 = tested on: M14
MOLT-4 = tested on: MOLT-4
NCI-H460 = tested on: NCI-H460
DU-145 = tested on: DU-145
TK-10 = tested on: TK-10
NCI/ADR-RES = tested on: NCI/ADR-RES
OVCAR-5 = tested on: OVCAR-5
SF-539 = tested on: SF-539
SNB-19 = tested on: SNB-19
OVCAR-8 = tested on: OVCAR-8
DLD-1 = tested on: DLD-1
SK-MEL-28 = tested on: SK-MEL-28
UACC-62 = tested on: UACC-62
MDA-MB-435 = tested on: MDA-MB-435
SF-268 = tested on: SF-268
A498 = tested on: A498
RPMI-8226 = tested on: RPMI-8226
SF-295 = tested on: SF-295
SN12C = tested on: SN12C
SW-620 = tested on: SW-620
HCC 2998 = tested on: HCC 2998
IGROV-1 = tested on: IGROV-1
CCRF-CEM = tested on: CCRF-CEM
A549 = tested on: A549
Hs-578T = tested on: Hs-578T
MDA-MB-231 = tested on: MDA-MB-231
MCF7 = tested on: MCF7
UACC-257 = tested on: UACC-257
DMS-114 = tested on: DMS-114
CAKI-1 = tested on: CAKI-1
U-251 = tested on: U-251
KM-20L2 = tested on: KM-20L2
MDA-N = tested on: MDA-N
OVCAR-4 = tested on: OVCAR-4
RXF 393 = tested on: RXF 393
HOP-92 = tested on: HOP-92
UO-31 = tested on: UO-31
NCI-H522 = tested on: NCI-H522
HOP-62 = tested on: HOP-62
XF498 = tested on: XF498
NCI-H226 = tested on: NCI-H226
K562 = tested on: K562
SK-MEL-5 = tested on: SK-MEL-5
M19-MEL = tested on: M19-MEL
Malme-3M = tested on: Malme-3M
SR = tested on: SR
KM12 = tested on: KM12
NCI-H23 = tested on: NCI-H23
SNB-78 = tested on: SNB-78
ACHN = tested on: ACHN
786-0 = tested on: 786-0
COLO 205 = tested on: COLO 205
DMS-273 = tested on: DMS-273
T47D = tested on: T47D
HT-29 = tested on: HT-29
HCT-15 = tested on: HCT-15
HCT-116 = tested on: HCT-116
LXFL 529 = tested on: LXFL 529
SK-MEL-2 = tested on: SK-MEL-2
PC-3 = tested on: PC-3
OVCAR-3 = tested on: OVCAR-3
HOP-18 = tested on: HOP-18
LOX IMVI = tested on: LOX IMVI
HL-60 = tested on: HL-60

O=C1c2c(O)cccc2-c2nn(CCNCCO)c3ccc(NCCNCCO)c1c23 [LOSOXANTRONE HYDROCHLORIDE]
GI50 (BT-549): 182 nM (active)
GI50 (EKVX): 867 nM (active)
GI50 (RXF 631): 318 nM (active)
GI50 (SNB-75): 47 nM (active)
GI50 (SK-OV-3): 73.5 nM (active)
GI50 (M14): 244 nM (active)
GI50 (MOLT-4): < 10 nM (active)
GI50 (NCI-H460): < 10 nM (active)
GI50 (DU-145): < 10 nM (active)
GI50 (TK-10): 685 nM (active)
GI50 (NCI/ADR-RES): 8280 nM (inactive)
GI50 (OVCAR-5): 290 nM (active)
GI50 (SF-539): 28.8 nM (active)
GI50 (SNB-19): < 16.7 nM (active)
GI50 (OVCAR-8): 159 nM (active)
GI50 (DLD-1): 1240 nM (inactive)
GI50 (SK-MEL-28): 447 nM (active)
GI50 (UACC-62): < 45.1 nM (active)
GI50 (MDA-MB-435): 530 nM (active)
GI50 (SF-268): 31.6 nM (active)
GI50 (A498): < 11.3 nM (active)
GI50 (RPMI-8226): 432 nM (active)
GI50 (SF-295): 23.6 nM (active)
GI50 (SN12C): 18.2 nM (active)
GI50 (SW-620): 116 nM (active)
GI50 (HCC 2998): 137 nM (active)
GI50 (IGROV-1): 337 nM (active)
GI50 (CCRF-CEM): < 10 nM (active)
GI50 (A549): < 10 nM (active)
GI50 (Hs-578T): 79.1 nM (active)
GI50 (MDA-MB-231): 185 nM (active)
GI50 (MCF7): < 10 nM (active)
GI50 (UACC-257): 1600 nM (inactive)
GI50 (DMS-114): < 10.4 nM (active)
GI50 (CAKI-1): 55.2 nM (active)
GI50 (U-251): 12.2 nM (active)
GI50 (KM-20L2): 1660 nM (inactive)
GI50 (MDA-N): 480 nM (active)
GI50 (OVCAR-4): 605 nM (active)
GI50 (RXF 393): 188 nM (active)
GI50 (HOP-92): 28.5 nM (active)
GI50 (UO-31): 1520 nM (inactive)
GI50 (NCI-H522): 22.8 nM (active)
GI50 (HOP-62): < 16.9 nM (active)
GI50 (XF498): 13.5 nM (active)
GI50 (NCI-H226): < 17.1 nM (active)
GI50 (K562): 238 nM (active)
GI50 (SK-MEL-5): 95.5 nM (active)
GI50 (M19-MEL): 160 nM (active)
GI50 (Malme-3M): 123 nM (active)
GI50 (SR): < 10 nM (active)
GI50 (KM12): 590 nM (active)
GI50 (NCI-H23): 33.8 nM (active)
GI50 (SNB-78): 634 nM (active)
GI50 (ACHN): 33.7 nM (active)
GI50 (786-0): < 18.5 nM (active)
GI50 (COLO 205): 158 nM (active)
GI50 (DMS-273): 28.8 nM (active)
GI50 (T47D): 105 nM (active)
GI50 (HT-29): 303 nM (active)
GI50 (HCT-15): 2360 nM
GI50 (HCT-116): 43 nM (active)
GI50 (LXFL 529): 107 nM (active)
GI50 (SK-MEL-2): 436 nM (active)
GI50 (PC-3): 160 nM (active)
GI50 (OVCAR-3): 598 nM (active)
GI50 (HOP-18): 248 nM (active)
GI50 (LOX IMVI): 66.7 nM (active)
GI50 (HL-60): < 10 nM (active)

COc1nc(N)c(NC(C)=O)c(=O)n1C
GI50 (EKVX): > 100000 nM (inactive)
GI50 (RXF 631): > 100000 nM (inactive)
GI50 (SNB-75): > 100000 nM (inactive)
GI50 (M14): > 100000 nM (inactive)
GI50 (MOLT-4): > 100000 nM (inactive)
GI50 (NCI-H460): > 100000 nM (inactive)
GI50 (TK-10): > 100000 nM (inactive)
GI50 (OVCAR-5): > 100000 nM (inactive)
GI50 (SF-539): > 100000 nM (inactive)
GI50 (SNB-19): > 100000 nM (inactive)
GI50 (OVCAR-8): > 100000 nM (inactive)
GI50 (DLD-1): > 100000 nM (inactive)
GI50 (SK-MEL-28): > 100000 nM (inactive)
GI50 (SF-268): > 100000 nM (inactive)
GI50 (A498): > 100000 nM (inactive)
GI50 (RPMI-8226): > 100000 nM (inactive)
GI50 (SF-295): > 100000 nM (inactive)
GI50 (SN12C): > 100000 nM (inactive)
GI50 (SW-620): > 100000 nM (inactive)
GI50 (HCC 2998): > 100000 nM (inactive)
GI50 (IGROV-1): > 100000 nM (inactive)
GI50 (CCRF-CEM): > 100000 nM (inactive)
GI50 (A549): > 100000 nM (inactive)
GI50 (UACC-257): > 100000 nM (inactive)
GI50 (DMS-114): > 100000 nM (inactive)
GI50 (CAKI-1): > 100000 nM (inactive)
GI50 (U-251): > 100000 nM (inactive)
GI50 (KM-20L2): > 100000 nM (inactive)
GI50 (OVCAR-4): > 100000 nM (inactive)
GI50 (RXF 393): > 100000 nM (inactive)
GI50 (HOP-92): 39900 nM (inactive)
GI50 (UO-31): > 100000 nM (inactive)
GI50 (XF498): > 100000 nM (inactive)
GI50 (NCI-H226): 140 nM (active)
GI50 (K562): > 100000 nM (inactive)
GI50 (Malme-3M): > 100000 nM (inactive)
GI50 (SR): > 100000 nM (inactive)
GI50 (KM12): > 100000 nM (inactive)
GI50 (NCI-H23): > 100000 nM (inactive)
GI50 (SNB-78): > 100000 nM (inactive)
GI50 (ACHN): > 100000 nM (inactive)
GI50 (COLO 205): > 100000 nM (inactive)
GI50 (DMS-273): > 100000 nM (inactive)
GI50 (HT-29): > 100000 nM (inactive)
GI50 (HCT-15): > 100000 nM
GI50 (HCT-116): > 100000 nM (inactive)
GI50 (LXFL 529): > 100000 nM (inactive)
GI50 (SK-MEL-2): > 100000 nM (inactive)
GI50 (HOP-18): > 100000 nM (inactive)
GI50 (LOX IMVI): > 100000 nM (inactive)
GI50 (HL-60): > 100000 nM (inactive)
